How the values were obtained:
Format in all cases: cell-based
[1] = target: T1, PTK2 (Homo sapiens, UniProt Q05397); assay: Expression proteomics in THP-1 cells: PTK2 protein level; conditions: PTK2, THP-1 cells
T1 construct: endogenous in cells; host or cells: THP-1
Protocol: (§1) THP-1 cells were seeded at a concentration of 3×10^6 cells in T175 flasks with 60 mL growth medium (RPMI1640+10% FBS). […] of a 10× compound solution prepared in growth medium (DMSO), CEREBLON_PROTAC) was added and the cells were treated for the indicated time points (6 or 24 h) at 37° C., 5% CO2. For harvesting the cells were collected into falcon tubes on ice, centrifuged and washed twice in cold PBS (Life technologies). After the last washing step the supernatant was removed and the pellets were snap-frozen in liquid N2 and stored at −80° C. and lysed in 2% SDS for 3 min at 95° C. in a thermomixer (Thermo Fisher Scientific), followed by digestion of DNA with Benzonase at 37° C. for 1.5 h. Lysate was cleared by centrifugation an protein concentration in supernatant was determined by BCA assay.
(§2) Leukemia 25, 89-100 (2011).
(§3) Samples were dried in vacuo and resuspended in 0.05% trifluoroacetic acid in water. Of the sample, 50% was injected into an Ultimate3000 nanoRLSC (Dionex, Sunnyvale, Calif.) coupled to a Q Exactive HF (Thermo Fisher Scientific). Peptides were trapped on a 5 mm×300 μm C18 column (Pepmap100, 5 μm, 300 Å, Thermo Fisher Scientific) in water with 0.05% TFA at 60° C. Separation was performed on custom 50 cm×[…] (ID) reversed-phase columns (Reprosil) at 55° C. Gradient elution was performed from 2% acetonitrile to 40% acetonitrile in 0.1% formic acid and 3.5% DMSO over 2 hours. Samples were online injected into Q-Exactive HF mass spectrometers operating with a data-dependent top 10 method. MS spectra were acquired by using 60.000 resolution and an ion target of 3×10^6. Higher energy collisional dissociation (HCD) scans were performed with 35% NCE at 30.000 resolution (at m/z 200), and the ion target settings was set to 2×10^5 so as to avoid coalescence (Werner, T. et al. Ion Coalescence of Neutron Encoded TMT 10-Plex Reporter Ions. Anal. Chem. 86, 3594-3601 (2014).
(§4) The first search was performed with 30 parts per million mass tolerance for peptide precursors and 30 mD (HCD) mass tolerance for fragment ions followed by a final search using recalibrated data with a 10 parts per million mass tolerance for peptide precursors and 20 mD (HCD) mass tolerance for fragment ions. Carbamidomethylation of cysteine residues and TMT modification of lysine residues were set as fixed modifications and methionine oxidation, and N-terminal acetylation of proteins and TMT modification of peptide N-termini were set as variable modifications. […]
(§5) Nat Biotech 29, 255-265 (2011). this measure is referred to as ion area Savitski, M. M. et al. Delayed Fragmentation and Optimized Isolation Width Settings for Improvement of Protein Identification and Accuracy of Isobaric Mass Tag Quantification on Orbitrap-Type Mass Spectrometers. […]

[2] = target: T2, AURKA (Homo sapiens, UniProt O14965); assay: Expression proteomics in THP-1 cells: AURKA protein level
T2 construct: endogenous in cells; host or cells: THP-1
T2 sequence (O14965 1-403): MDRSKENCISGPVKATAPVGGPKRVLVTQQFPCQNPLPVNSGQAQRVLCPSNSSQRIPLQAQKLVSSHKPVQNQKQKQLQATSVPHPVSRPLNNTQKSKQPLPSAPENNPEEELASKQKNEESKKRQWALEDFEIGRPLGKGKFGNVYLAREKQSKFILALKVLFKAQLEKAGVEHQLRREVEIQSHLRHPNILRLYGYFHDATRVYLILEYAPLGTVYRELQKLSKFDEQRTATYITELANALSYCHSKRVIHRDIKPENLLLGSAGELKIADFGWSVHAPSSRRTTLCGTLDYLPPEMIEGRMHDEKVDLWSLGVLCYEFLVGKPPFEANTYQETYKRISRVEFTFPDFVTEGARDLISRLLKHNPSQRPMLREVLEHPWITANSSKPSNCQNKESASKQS
Protocol: as §1, §2, §3, §4, §5

[3] = target: T3, PRKAA1 (Homo sapiens, UniProt Q13131); assay: Expression proteomics in THP-1 cells: PRKAA1 protein level; conditions: PRKAA1, THP-1 cells
T3 construct: endogenous in cells; host or cells: THP-1
Protocol: as §1, §2, §3, §4, §5

[4] = target: T4, RPS6KA1 (Homo sapiens, UniProt Q15418); assay: Expression proteomics in THP-1 cells: RPS6KA1 protein level; conditions: RPS6KA1, THP-1 cells
T4 construct: endogenous in cells; host or cells: THP-1
Protocol: as §1, §2, §3, §4, §5

[5] = target: T5, ABL1 (Homo sapiens, UniProt P00519); assay: Expression proteomics in THP-1 cells: ABL1 protein level; conditions: ABL1, THP-1 cells
T5 construct: endogenous in cells; host or cells: THP-1
Protocol: as §1, §2, §3, §4, §5

T4 sequence (Q15418 whole entry): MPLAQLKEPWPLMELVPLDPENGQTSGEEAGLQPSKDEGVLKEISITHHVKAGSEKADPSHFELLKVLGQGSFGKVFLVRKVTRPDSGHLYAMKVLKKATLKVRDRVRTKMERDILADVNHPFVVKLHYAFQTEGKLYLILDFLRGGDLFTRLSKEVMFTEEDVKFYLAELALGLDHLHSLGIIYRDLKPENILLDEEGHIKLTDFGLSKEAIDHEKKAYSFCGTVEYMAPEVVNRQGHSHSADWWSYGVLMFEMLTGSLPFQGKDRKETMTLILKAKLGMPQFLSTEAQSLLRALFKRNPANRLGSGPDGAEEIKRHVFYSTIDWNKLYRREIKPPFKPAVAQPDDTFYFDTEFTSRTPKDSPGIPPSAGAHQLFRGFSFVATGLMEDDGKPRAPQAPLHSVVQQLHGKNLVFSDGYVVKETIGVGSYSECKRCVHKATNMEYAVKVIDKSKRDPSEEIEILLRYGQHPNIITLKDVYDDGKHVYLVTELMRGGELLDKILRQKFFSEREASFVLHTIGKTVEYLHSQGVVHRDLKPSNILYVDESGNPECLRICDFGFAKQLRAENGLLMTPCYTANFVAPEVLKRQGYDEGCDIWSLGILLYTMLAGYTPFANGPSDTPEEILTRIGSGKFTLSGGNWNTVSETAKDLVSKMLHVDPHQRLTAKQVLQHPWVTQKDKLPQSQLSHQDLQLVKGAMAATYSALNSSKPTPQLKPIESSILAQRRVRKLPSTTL
T5 sequence (P00519 whole entry): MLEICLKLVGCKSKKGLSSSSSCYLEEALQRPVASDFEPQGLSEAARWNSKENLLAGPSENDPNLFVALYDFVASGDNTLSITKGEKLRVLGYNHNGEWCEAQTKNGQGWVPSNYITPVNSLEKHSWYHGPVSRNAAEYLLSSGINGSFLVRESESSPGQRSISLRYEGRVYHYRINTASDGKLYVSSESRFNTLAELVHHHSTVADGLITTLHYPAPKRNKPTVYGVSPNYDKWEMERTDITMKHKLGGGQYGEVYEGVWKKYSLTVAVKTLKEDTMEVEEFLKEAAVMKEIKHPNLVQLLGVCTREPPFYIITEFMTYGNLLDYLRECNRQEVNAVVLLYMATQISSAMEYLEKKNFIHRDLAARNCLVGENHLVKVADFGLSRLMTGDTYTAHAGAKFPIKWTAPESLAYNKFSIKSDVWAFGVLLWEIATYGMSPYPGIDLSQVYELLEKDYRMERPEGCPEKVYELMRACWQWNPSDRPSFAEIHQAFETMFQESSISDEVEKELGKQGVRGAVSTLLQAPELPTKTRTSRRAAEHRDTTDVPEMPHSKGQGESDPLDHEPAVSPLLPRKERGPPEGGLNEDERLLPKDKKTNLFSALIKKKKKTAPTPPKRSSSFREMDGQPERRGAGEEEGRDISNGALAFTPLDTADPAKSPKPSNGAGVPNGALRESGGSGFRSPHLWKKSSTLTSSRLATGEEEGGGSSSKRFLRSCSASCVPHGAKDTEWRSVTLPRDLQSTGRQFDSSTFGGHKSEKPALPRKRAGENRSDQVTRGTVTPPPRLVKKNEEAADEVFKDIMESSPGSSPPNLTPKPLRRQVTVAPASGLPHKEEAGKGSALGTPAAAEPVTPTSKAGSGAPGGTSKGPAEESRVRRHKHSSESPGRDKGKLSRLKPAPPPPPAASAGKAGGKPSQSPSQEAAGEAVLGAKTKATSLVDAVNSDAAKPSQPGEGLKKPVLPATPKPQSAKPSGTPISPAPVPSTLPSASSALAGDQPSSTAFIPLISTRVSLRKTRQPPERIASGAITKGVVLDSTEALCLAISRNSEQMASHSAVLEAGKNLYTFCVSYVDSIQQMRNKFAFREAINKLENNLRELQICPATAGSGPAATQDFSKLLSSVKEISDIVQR
T1 sequence (Q05397 whole entry): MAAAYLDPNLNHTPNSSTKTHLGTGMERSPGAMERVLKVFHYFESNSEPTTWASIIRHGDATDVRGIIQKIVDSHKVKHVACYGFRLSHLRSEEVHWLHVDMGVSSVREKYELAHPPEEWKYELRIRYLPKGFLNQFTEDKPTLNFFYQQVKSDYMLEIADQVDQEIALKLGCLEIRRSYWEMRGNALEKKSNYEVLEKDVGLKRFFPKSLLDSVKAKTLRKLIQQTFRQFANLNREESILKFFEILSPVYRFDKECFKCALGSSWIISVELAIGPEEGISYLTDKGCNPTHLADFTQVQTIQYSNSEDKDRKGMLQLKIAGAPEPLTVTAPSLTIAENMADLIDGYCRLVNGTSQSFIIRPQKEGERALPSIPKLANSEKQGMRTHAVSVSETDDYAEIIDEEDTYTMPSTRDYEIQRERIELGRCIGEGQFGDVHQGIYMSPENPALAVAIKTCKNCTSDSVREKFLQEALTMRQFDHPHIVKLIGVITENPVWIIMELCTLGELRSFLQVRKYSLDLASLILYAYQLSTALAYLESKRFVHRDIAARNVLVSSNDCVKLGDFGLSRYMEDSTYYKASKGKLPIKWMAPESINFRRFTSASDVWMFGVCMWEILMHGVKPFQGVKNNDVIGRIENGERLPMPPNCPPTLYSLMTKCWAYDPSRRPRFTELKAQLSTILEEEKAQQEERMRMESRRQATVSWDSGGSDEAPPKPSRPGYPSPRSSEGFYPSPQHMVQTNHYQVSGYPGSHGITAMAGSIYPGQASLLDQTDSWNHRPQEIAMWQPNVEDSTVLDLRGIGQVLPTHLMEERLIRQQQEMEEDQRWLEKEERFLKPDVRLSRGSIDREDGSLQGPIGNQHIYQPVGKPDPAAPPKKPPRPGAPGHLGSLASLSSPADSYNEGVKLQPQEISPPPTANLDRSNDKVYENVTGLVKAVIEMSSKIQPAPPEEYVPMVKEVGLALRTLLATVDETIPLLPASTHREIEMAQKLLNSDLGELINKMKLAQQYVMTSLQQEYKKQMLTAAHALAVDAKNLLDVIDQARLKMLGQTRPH
T3 sequence (Q13131 whole entry): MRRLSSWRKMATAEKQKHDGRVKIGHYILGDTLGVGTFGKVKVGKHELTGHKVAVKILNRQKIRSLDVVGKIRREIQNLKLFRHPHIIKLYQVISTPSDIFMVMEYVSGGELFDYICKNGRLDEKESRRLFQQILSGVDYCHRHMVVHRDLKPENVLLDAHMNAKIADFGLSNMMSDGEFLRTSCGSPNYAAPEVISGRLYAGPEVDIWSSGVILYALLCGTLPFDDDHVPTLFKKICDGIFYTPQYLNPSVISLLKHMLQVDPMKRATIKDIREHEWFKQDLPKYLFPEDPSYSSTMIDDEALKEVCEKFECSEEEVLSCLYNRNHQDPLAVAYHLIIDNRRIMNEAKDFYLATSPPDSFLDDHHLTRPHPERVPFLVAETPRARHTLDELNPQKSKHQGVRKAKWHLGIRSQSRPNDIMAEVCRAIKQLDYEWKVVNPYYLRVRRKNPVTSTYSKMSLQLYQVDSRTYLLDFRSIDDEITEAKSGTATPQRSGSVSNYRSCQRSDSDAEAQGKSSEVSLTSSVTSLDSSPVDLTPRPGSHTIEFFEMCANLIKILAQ
T3 sequence (Q9Y478 2-270 partner limits assumed): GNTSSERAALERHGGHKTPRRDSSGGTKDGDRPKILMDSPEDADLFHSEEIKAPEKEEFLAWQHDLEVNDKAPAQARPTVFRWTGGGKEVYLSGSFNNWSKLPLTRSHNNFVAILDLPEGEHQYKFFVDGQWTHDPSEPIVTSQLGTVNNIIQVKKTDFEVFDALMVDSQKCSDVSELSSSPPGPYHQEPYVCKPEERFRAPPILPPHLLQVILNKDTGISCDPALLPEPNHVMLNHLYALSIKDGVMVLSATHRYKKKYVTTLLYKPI
T3 sequence (P54619 whole entry partner): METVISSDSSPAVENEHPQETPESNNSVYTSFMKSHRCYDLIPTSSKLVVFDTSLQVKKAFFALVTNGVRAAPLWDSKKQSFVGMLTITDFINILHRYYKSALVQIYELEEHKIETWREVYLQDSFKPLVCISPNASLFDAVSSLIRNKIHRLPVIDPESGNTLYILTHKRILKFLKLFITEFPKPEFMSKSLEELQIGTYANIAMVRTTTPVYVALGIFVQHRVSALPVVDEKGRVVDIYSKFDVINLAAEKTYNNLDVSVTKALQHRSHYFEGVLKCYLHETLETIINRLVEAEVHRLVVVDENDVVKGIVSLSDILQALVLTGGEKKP

log2 rel. fc. to vehicle control ([1]; 24 h 0.1 μM, n = 1): −2.29 | log2 rel. fc. to vehicle control ([1]; 24 h 0.1 μM, n = 2): −2.92 | log2 rel. fc. to vehicle control ([1]; 24 h 1 μM, n = 1): −2.42 | log2 rel. fc. to vehicle control ([1]; 24 h 1 μM, n = 2): −2.20 | log2 rel. fc. to vehicle control ([2]; 24 h 0.1 μM, n = 1): −1.45 | log2 rel. fc. to vehicle control ([2]; 24 h 0.1 μM, n = 2): −1.00 | log2 rel. fc. to vehicle control ([2]; 24 h 1 μM, n = 1): −2.10 | log2 rel. fc. to vehicle control ([2]; 24 h 1 μM, n = 2): −1.93 | log2 rel. fc. to vehicle control ([3]; 24 h 0.1 μM, n = 1): −0.38 | log2 rel. fc. to vehicle control ([3]; 24 h 0.1 μM, n = 2): −0.74 | log2 rel. fc. to vehicle control ([3]; 24 h 1 μM, n = 1): −1.06 | log2 rel. fc. to vehicle control ([3]; 24 h 1 μM, n = 2): −1.35 | log2 rel. fc. to vehicle control ([4]; 24 h 0.1 μM, n = 1): −1.65 | log2 rel. fc. to vehicle control ([4]; 24 h 0.1 μM, n = 2): −1.55 | log2 rel. fc. to vehicle control ([4]; 24 h 1 μM, n = 1): −1.86 | log2 rel. fc. to vehicle control ([4]; 24 h 1 μM, n = 2): −1.93 | log2 rel. fc. to vehicle control ([5]; 24 h 0.1 μM, n = 1): −0.72 | log2 rel. fc. to vehicle control ([5]; 24 h 0.1 μM, n = 2): −0.70 | log2 rel. fc. to vehicle control ([5]; 24 h 1 μM, n = 1): −1.43 | log2 rel. fc. to vehicle control ([5]; 24 h 1 μM, n = 2): −1.63
SMILES: CNC(=O)c1ccccc1Nc1nc(Nc2ccc(N3CCN(CCOCCOCCOCCOCC(=O)Nc4cccc5c4CN(C4CCC(=O)NC4=O)C5=O)CC3)cc2)ncc1Cl.O=CO (centres unmarked) [CEREBLON_PROTAC, 14-(4-(4-((5-Chloro-4-((2-(methylcarbamoyl)phenyl)amino)pyrimidin-2-yl)amino)phenyl)piperazin-1-yl)-N-(2-(2,6-dioxopiperidin-3-yl)-1-oxoisoindolin-4-yl)-3,6,9,12-tetraoxatetradecan-1-amide formate]
